Data published in US9504669B2, “Spliceostatin analogs and methods for their preparation” (PFIZER INC., priority 2012, dated 2016).

How the values were obtained:
Format in all cases: cell-based
Conditions in all cases: free compounds (natural products and synthetic analogs), cell viability 96 hours after treatment
[1] = system: N87 (gastric cancer) cells; test: In vitro cell assay (MTS cell viability), N87
How it was run: (§1)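 Cells seeded 24 h, then treated with antibody-drug conjugates or free drug, 3-fold serial dilutions at 10 concentrations in duplicate. Viability by MTS at 96 h as percent of untreated control; IC50 from four-parameter logistic fit.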

[2] = system: BT474 (breast cancer) cells; test: In vitro cell assay (MTS cell viability), BT474
Description: Target expressing (BT474 (breast cancer), N87 (gastric cancer), HCC1954 (breast cancer), MDA-MB-361-DYT2 (breast cancer)) or non-expressing (MDA-MB-468) cells were seeded in 96-well cell culture plates for 24 hours before treatment. Cells were treated with 3-fold serially diluted antibody-drug conjugates or free compounds (i.e., no antibody conjugated to the drug) in duplicate at 10 concentrations. Cell viability was determined by CellTiter 96® AQueous One Solution Cell Proliferation MTS Assay (Promega, Madison Wis.) 96 hours after treatment. Relative cell viability was determined as percentage of untreated control. IC50 values were calculated using a four parameter logistic model #203 with XLfit v4.2 (IDBS, Guildford, Surry, UK). The potency ranged upward from 0.0002 nm. Similar procedures and techniques were employed.

[3] = system: MDA-MB-361-DYT2 (breast cancer) cells; test: In vitro cell assay (MTS cell viability), MDA-MB-361-DYT2
How it was run: as §1

Structure (SMILES)	IC50 [1]	IC50 [2]	IC50 [3]	IC50 ([1]; 96 h)	IC50 ([2]; Homo sapiens, BT-474)	IC50 ([3]; 96 h)
CC(=O)O[C@@H](C)/C=C\C(=O)N[C@@H]1C[C@H](C)[C@H](C/C=C(C)/C=C/[C@H]2O[C@H](CC(=O)NCc3ccc(S(=O)(=O)N(C)C)cc3)C[C@@]3(CO3)[C@@H]2O)O[C@@H]1C [#B93, (2S,3Z)-5-{[(2R,3R,5S,6S)-6-{(2E,4E)-5-[(3R,4R,5R,7S)-7-(2-{[4-(dimethylsulfamoyl)benzyl]amino}-2-oxoethyl)-4-hydroxy-1,6-dioxaspiro[2.5]oct-5-yl]-3-methylpenta-2,4-dien-1-yl}-2,5-dimethyltetrahydro-2H-pyran-3-yl[amino}-5-oxopent-3-en-2-yl acetate]	0.647 nM	2.27 nM	3.96 nM			
CNS(=O)(=O)c1ccc(CNC(=O)C[C@@H]2C[C@@]3(CO3)[C@H](O)[C@@H](/C=C/C(C)=C/C[C@@H]3O[C@H](C)[C@H](NC(=O)/C=C\[C@H](C)OC(C)=O)C[C@@H]3C)O2)cc1 [#B94, (2S,3Z)-5-{[(2R,3R,5S,6S)-6-{(2E,4E)-5-[(3R,4R,5R,7S)-4-hydroxy-7-(2-{[4-(methylsulfamoyl)benzyl]amino}-2-oxoethyl)-1,6-dioxaspiro[2.5]oct-5-yl]-3-methylpenta-2,4-dien-1-yl}-2,5-dimethyltetrahydro-2H-pyran-3-yl]amino}-5-oxopent-3-en-2-yl acetate]				4.9 nM	18.6 nM	37.4 nM
CC(=O)O[C@@H](C)/C=C\C(=O)N[C@@H]1C[C@H](C)[C@H](C/C=C(C)/C=C/[C@@H]2C[C@]3(CO3)C[C@@H](CC(=O)NCCO)O2)O[C@@H]1C [#B95, ((2S,3Z)-5-{[(2R,3R,5S,6S)-6-{(2E,4E)-5-[(3S,5S,7S)-7-{2-[(2-hydroxyethyl)amino]-2-oxoethyl}-1,6-dioxaspiro[2.5]oct-5-yl]-3-methylpenta-2,4-dien-1-yl}-2,5-dimethyltetrahydro-2H-pyran-3-yl]amino}-5-oxopent-3-en-2-yl acetate]	1.06 nM	1.28 nM	11.1 nM			
CC(=O)O[C@@H](C)/C=C\C(=O)N[C@@H]1C[C@H](C)[C@H](C/C=C(C)/C=C/[C@@H]2C[C@]3(CO3)C[C@@H](CC(=O)N(C)Cc3ccc(S(=O)(=O)N(C)C)cc3)O2)O[C@@H]1C [#B96, (2S,3Z)-5-{[(2R,3R,5S,6S)-6-{(2E,4E)-5-[(3S,5S,7S)-7-(2-{[4-(dimethylsulfamoyl)benzyl](methyl)amino}-2-oxoethyl)-1,6-dioxaspiro[2.5]oct-5-yl]-3-methylpenta-2,4-dien-1-yl}-2,5-dimethyltetrahydro-2H-pyran-3-yl]amino}-5-oxopent-3-en-2-yl acetate]				12.3 nM	22.9 nM	31.5 nM
CC(=O)O[C@@H](C)/C=C\C(=O)N[C@@H]1C[C@H](C)[C@H](C/C=C(C)/C=C/[C@@H]2C[C@]3(CO3)C[C@@H](CC(=O)NCc3ccc(S(N)(=O)=O)cc3)O2)O[C@@H]1C [#B97, (2S,3Z)-5-{[(2R,3R,5S,6S)-2,5-dimethyl-6-{(2E,4E)-3-methyl-5-[(3S,5S,7S)-7-{2-oxo-2-[(4-sulfamoylbenzyl)amino]ethyl}-1,6-dioxaspiro[2.5]oct-5-yl]penta-2,4-dien-1-yl}tetrahydro-2H-pyran-3-yl]amino}-5-oxopent-3-en-2-yl acetate]				5.09 nM	8.83 nM	41.6 nM
CC(=O)O[C@@H](C)/C=C\C(=O)N[C@@H]1C[C@H](C)[C@H](C/C=C(C)/C=C/[C@@H]2C[C@]3(CO3)C[C@@H](CC(=O)NCc3ccc(S(=O)(=O)N(C)C)cc3)O2)O[C@@H]1C [#B98, (2S,3Z)-5-{[(2R,3R,5S,6S)-6-{(2E,4E)-5-[(3S,5S,7S)-7-(2-{[4-(dimethylsulfamoyl)benzyl]amino}-2-oxoethyl)-1,6-dioxaspiro[2.5]oct-5-yl]-3-methylpenta-2,4-dien-1-yl}-2,5-dimethyltetrahydro-2H-pyran-3-yl]amino}-5-oxopent-3-en-2-yl acetate]				2.55 nM	5.75 nM	8.7 nM
CC(=O)O[C@@H](C)/C=C\C(=O)N[C@@H]1C[C@H](C)[C@H](C/C=C(C)/C=C/[C@@H]2C[C@]3(CO3)C[C@@H](CC(=O)NCCS(C)(=O)=O)O2)O[C@@H]1C [#B99, (2S,3Z)-5-{[(2R,3R,5S,6S)-2,5-dimethyl-6-{(2E,4E)-3-methyl-5-[(3S,5S,7S)-7-(2-{[2-(methylsulfonyl)ethyl]amino}-2-oxoethyl)-1,6-dioxaspiro[2.5]oct-5-yl]penta-2,4-dien-1-yl}tetraydro-2H-pyran-3-yl]amino}-5-oxopent-3-en-2-yl acetate]	3.28 nM	7.87 nM	21.5 nM			
CC(=O)O[C@@H](C)/C=C\C(=O)N[C@@H]1C[C@H](C)[C@H](C/C=C(C)/C=C/[C@@H]2C[C@]3(CO3)C[C@@H](CC(=O)NCc3ccc(N)cc3)O2)O[C@@H]1C [#B100, (2S,3Z)-5-{[(2R,3R,5S,6S)-6-{(2E,4E)-5-[(3S,5S,7S)-7-{2-[(4-aminobenzyl)amino]-2-oxoethyl}-1,6-dioxaspiro[2.5]oct-5-yl]-3-methylpenta-2,4-dien-1-yl}-2,5-dimethyltetrahydro-2H-pyran-3-yl]amino}-5-oxopent-3-en-2-yl acetate]				5.05 nM	10.6 nM	16.9 nM
CC(=O)O[C@@H](C)/C=C\C(=O)N[C@@H]1C[C@H](C)[C@H](C/C=C(C)/C=C/[C@@H]2C[C@]3(CO3)C[C@@H](CC(=O)NCc3ccccc3)O2)O[C@@H]1C [#B101, (2S,3Z)-5-({(2R,3R,5S,6S)-6-[(2E,4E)-5-{(3S,5S,7S)-7-[2-(benzylamino)-2-oxoethyl]-1,6-dioxaspiro[2.5]oct-5-yl}-3-methylpenta-2,4-dien-1-yl]-2,5-dimethyltetrahydro-2H-pyran-3-yl}amino)-5-oxopent-3-en-2-yl acetate]				10.4 nM	25.6 nM	34.8 nM
CSCCN(C)C(=O)C[C@@H]1C[C@@]2(CO2)C[C@@H](/C=C/C(C)=C/C[C@@H]2O[C@H](C)[C@H](NC(=O)/C=C\[C@H](C)OC(C)=O)C[C@@H]2C)O1 [#B102, (2S,3Z)-5-{[(2R,3R,5S,6S)-2,5-dimethyl-6-{(2E,4E)-3-methyl-5-[(3S,5S,7S)-7-(2-{methyl[2-(methylsulfanyl)ethyl]amino}-2-oxoethyl)-1,6-dioxaspiro[2.5]oct-5-yl]penta-2,4-dien-1-yl}tetrahydro-2H-pyran-3-yl]amino}-5-oxopent-3-en-2-yl acetate]				7.79 nM	10.7 nM	32.9 nM
CSCCNC(=O)C[C@@H]1C[C@@]2(CO2)C[C@@H](/C=C/C(C)=C/C[C@@H]2O[C@H](C)[C@H](NC(=O)/C=C\[C@H](C)OC(C)=O)C[C@@H]2C)O1 [#B103, (2S,3Z)-5-{[(2R,3R,5S,6S)-2,5-dimethyl-6-{(2E,4E)-3-methyl-5-[(3S,5S,7S)-7-(2-{[2-(methylsulfanyl)ethyl]amino}-2-oxoethyl)-1,6-dioxaspiro[2.5]oct-5-yl]penta-2,4-dien-1-yl}tetrahydro-2H-pyran-3-yl]amino}-5-oxopent-3-en-2-yl acetate]				1.6 nM	4.03 nM	4.25 nM
CC(=O)O[C@@H](C)/C=C\C(=O)N[C@@H]1C[C@H](C)[C@H](C/C=C(C)/C=C/[C@@H]2C[C@]3(CO3)C[C@@H](CC(=O)NCCS(C)(=O)=O)O2)O[C@@H]1C [#B104, (2S,3Z)-5-{[(2R,3R,5S,6S)-2,5-dimethyl-6-{(2E,4E)-3-methyl-5-[(3S,5S,7S)-7-(2-{[2-(methylsulfonyl)ethyl]amino}-2-oxoethyl)-1,6-dioxaspiro[2.5]oct-5-yl]penta-2,4-dien-1-yl}tetrahydro-2H-pyran-3-yl]amino}-5-oxopent-3-en-2-yl acetate]				1.41 nM	4.02 nM	9.13 nM
CC(=O)/C=C\C(=O)N[C@@H]1C[C@H](C)[C@H](C/C=C(C)/C=C/[C@@H]2C[C@]3(CO3)C[C@@H](CC(N)=O)O2)O[C@@H]1C [#B129, (2Z)—N-[(2R,3R,5S,6S)-6-{(2E,4E)-5-[(3S,5S,7S)-7-(2-amino-2-oxoethyl)-1,6-dioxaspiro[2.5]oct-5-yl]-3-methylpenta-2,4-dien-1-yl}-2,5-dimethyltetrahydro-2H-pyran-3-yl]-4-oxopent-2-enamide]				> 100 nM	> 100 nM	> 100 nM
CSCCN(C)C(=O)O[C@@H](C)/C=C\C(=O)N[C@@H]1C[C@H](C)[C@H](C/C=C(C)/C=C/[C@H]2O[C@H](CC(N)=O)C[C@@]3(CO3)[C@@H]2O)O[C@@H]1C [#B130, (2S,3Z)-5-{[(2R,3R,5S,6S)-6-{(2E,4E)-5-[(3R,4R,5R,7S)-7-(2-amino-2-oxoethyl)-4-hydroxy-1,6-dioxaspiro[2.5]oct-5-yl]-3-methylpenta-2,4-dien-1-yl}-2,5-dimethyltetrahydro-2H-pyran-3-yl]amino}-5-oxopent-3-en-2-yl methyl[2-(methylsulfanyl)ethyl]carbamate]				2.98 nM	1.5 nM	4.5 nM
CC(/C=C/[C@H]1O[C@H](CC(N)=O)C[C@@]2(CO2)[C@@H]1O)=C\C[C@@H]1O[C@H](C)[C@H](NC(=O)/C=C\[C@H](C)OC(=O)N2CCCCC2)C[C@@H]1C [#B134, (2S,3Z)-5-{[(2R,3R,5S,6S)-6-{(2E,4E)-5-[(3R,4R,5R,7S)-7-(2-amino-2-oxoethyl)-4-hydroxy-1,6-dioxaspiro[2.5]oct-5-yl]-3-methylpenta-2,4-dien-1-yl}-2,5-dimethyltetrahydro-2H-pyran-3-yl]amino}-5-oxopent-3-en-2-yl piperidine-1-carboxylate]				1.8 nM	1.18 nM	2.02 nM
